From ChEMBL document CHEMBL1201862, “PubChem BioAssay data set” (2004)
Active and inactive are the calls of the source.

Legend:
[1] = molecular target: Fructose-bisphosphate aldolase (Mycobacterium tuberculosis, UniProt P9WQA3); assay: Fluorescence-based biochemical high throughput dose response assay for inhibitors of the fructose-bisphosphate aldolase (FBA) of M. tuberculosis.; type: functional
[2] = Luminescence Cell-Based Dose Confirmation HTS to Identify Activators of 5'UTR Stem-Loop Driven Alpha-Synuclein mRNA Translation in H4 Neuroglioblastoma Cells. [Related pubchem assays: 1829 (Project Summary), 1814 (Primary HTS)]; type: functional
[3] = Luminescence Cell-Based Dose Response HTS to Identify Activators of Luciferase Translation or Activity in H4 […] Cells. [Related pubchem assays: 1829 (Project Summary), 1814 (Primary HTS)]; type: functional
H4 = assay: Luminescence Cell-Based Dose Response HTS to Identify Activators of 5'UTR Stem-Loop Driven Prion Protein mRNA Translation in H4 Neuroglioblastoma Cells. [Related pubchem assays: 1829 (Project Summary), 1814 (Primary HTS)]; type: functional; details: Homo sapiens
[4] = molecular target: T1, Heat shock factor protein 1 (Mus musculus, UniProt P38532); assay: decrease of HSF1-responsive luciferase luminescence – cell-based, NIH3T3, dose retest, confirmation (AID 2382); type: functional;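 also: NIH3T3 fibroblasts with HSF1-driven luciferase reporter stressed by proteasome inhibitor MG132; luminescence from HSF1-driven luciferase expression after 8 hours of MG132 stress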
T1 sequence (P38532 whole entry): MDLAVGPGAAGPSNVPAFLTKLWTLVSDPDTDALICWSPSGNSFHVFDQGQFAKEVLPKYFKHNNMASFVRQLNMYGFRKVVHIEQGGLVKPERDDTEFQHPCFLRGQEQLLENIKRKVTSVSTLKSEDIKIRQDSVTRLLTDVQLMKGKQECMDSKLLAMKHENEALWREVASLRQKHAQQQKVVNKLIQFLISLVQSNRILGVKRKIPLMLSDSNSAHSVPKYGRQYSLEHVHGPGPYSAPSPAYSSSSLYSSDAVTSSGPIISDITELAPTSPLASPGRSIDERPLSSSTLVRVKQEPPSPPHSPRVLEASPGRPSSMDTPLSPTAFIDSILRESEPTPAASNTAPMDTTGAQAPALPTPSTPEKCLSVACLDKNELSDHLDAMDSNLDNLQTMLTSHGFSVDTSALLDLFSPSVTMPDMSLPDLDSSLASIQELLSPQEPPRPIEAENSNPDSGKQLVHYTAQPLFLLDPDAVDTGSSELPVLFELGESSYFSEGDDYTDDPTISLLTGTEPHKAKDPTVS

[5] = A549 cell cytotoxicity, dose response, cytotoxicity control, plate reader, cherry-pick, antagonist series (AID 743412); type: functional, cell-based
[6] = blockers of bursicon-stimulated LGR2 cAMP reporter – cell-based, HEK293, CRE-luciferase reporter, cherry pick, set 2, dose response (AID 743343); type: functional;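 also: transfected cells were stimulated with diluted bursicon conditioned medium after compound addition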
[7] = blockade of melanocortin 4 receptor signaling – cell-based, plate reader, cherry pick, counter-screen for LGR2 antagonist project, dose response (AID 743444); type: functional;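 also: transfected HEK 293 cells stimulated with alpha-MSH peptide; potency of inhibitors of the alpha-MSH evoked signal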
[8] = viability loss in HEK293 cells – cell-based, plate reader, cherry-picked samples, cytotoxicity control, dose response (AID 743446); type: functional
fMet-Leu-Phe receptor = fMet-Leu-Phe receptor (Homo sapiens, UniProt P21462); assay: formyl peptide receptor binders – dose response (AID 519); type: functional
Sequence of fMet-Leu-Phe receptor (P21462 whole entry): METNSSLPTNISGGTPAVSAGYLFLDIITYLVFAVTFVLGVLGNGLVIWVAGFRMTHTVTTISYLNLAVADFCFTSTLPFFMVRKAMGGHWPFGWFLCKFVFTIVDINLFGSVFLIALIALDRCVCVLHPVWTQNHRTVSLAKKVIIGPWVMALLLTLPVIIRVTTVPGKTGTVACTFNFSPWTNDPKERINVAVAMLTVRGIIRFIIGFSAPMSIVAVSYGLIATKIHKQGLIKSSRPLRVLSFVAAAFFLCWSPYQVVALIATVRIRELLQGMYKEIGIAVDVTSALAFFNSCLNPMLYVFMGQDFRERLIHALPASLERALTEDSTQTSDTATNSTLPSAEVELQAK

Cytochrome P450 3A4 = Cytochrome P450 3A4 (Homo sapiens, UniProt P08684);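 also: CYP3A4 tested as one member of a cytochrome P450 panel screen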
Sequence of Cytochrome P450 3A4 (P08684 whole entry): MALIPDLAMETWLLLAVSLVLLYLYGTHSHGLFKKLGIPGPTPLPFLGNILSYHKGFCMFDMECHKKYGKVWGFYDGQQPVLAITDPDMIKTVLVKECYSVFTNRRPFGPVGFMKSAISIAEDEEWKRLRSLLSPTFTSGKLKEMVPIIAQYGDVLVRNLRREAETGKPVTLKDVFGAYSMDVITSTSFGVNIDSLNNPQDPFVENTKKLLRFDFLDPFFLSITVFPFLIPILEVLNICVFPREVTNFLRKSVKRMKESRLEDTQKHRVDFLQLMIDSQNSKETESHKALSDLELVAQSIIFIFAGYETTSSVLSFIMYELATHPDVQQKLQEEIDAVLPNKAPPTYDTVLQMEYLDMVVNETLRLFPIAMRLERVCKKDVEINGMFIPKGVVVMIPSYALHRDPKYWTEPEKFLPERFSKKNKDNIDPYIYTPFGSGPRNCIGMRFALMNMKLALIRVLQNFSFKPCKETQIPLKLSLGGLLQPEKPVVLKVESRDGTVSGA

[9] = molecular target: DNA dC->dU-editing enzyme APOBEC-3A (Homo sapiens, UniProt P31941); assay: Dose Response confirmation of small molecule APOBEC3A DNA Deaminase Inhibitors via a fluorescence-based single-stranded DNA deaminase assay. [Related pubchem assays (depositor defined):AID493011, AID493024]; type: functional
Sequence of DNA dC->dU-editing enzyme APOBEC-3A (P31941 whole entry): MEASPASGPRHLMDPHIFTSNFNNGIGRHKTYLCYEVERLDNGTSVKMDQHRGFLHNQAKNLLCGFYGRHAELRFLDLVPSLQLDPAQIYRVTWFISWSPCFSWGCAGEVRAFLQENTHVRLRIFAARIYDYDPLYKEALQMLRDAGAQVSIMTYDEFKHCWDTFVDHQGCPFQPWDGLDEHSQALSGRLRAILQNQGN

[10] = molecular target: DNA dC->dU-editing enzyme APOBEC-3G (Homo sapiens, UniProt Q9HC16); type: functional;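 also: Dose-response counterscreen measuring inhibition of APOBEC3G DNA deaminase activity, run while confirming APOBEC3A inhibitors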
Sequence of DNA dC->dU-editing enzyme APOBEC-3G (Q9HC16 whole entry): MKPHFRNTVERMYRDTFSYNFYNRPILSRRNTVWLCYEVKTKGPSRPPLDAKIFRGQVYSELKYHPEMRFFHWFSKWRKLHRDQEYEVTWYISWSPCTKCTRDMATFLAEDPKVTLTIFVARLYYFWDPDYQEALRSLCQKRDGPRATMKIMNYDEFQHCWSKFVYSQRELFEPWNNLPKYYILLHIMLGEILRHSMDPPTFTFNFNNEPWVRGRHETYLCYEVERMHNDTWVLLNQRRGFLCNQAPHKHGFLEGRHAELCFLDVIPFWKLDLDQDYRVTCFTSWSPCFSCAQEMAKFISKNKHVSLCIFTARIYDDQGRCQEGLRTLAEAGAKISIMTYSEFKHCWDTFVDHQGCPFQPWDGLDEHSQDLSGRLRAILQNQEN

Beta-galactosidase = Beta-galactosidase (Escherichia coli, UniProt Q8VNN2); assay: Dose response counterscreen for EBI2 assay utilizing the enzyme, b-galactosidase.; type: functional
Sequence of Beta-galactosidase (Q8VNN2 whole entry): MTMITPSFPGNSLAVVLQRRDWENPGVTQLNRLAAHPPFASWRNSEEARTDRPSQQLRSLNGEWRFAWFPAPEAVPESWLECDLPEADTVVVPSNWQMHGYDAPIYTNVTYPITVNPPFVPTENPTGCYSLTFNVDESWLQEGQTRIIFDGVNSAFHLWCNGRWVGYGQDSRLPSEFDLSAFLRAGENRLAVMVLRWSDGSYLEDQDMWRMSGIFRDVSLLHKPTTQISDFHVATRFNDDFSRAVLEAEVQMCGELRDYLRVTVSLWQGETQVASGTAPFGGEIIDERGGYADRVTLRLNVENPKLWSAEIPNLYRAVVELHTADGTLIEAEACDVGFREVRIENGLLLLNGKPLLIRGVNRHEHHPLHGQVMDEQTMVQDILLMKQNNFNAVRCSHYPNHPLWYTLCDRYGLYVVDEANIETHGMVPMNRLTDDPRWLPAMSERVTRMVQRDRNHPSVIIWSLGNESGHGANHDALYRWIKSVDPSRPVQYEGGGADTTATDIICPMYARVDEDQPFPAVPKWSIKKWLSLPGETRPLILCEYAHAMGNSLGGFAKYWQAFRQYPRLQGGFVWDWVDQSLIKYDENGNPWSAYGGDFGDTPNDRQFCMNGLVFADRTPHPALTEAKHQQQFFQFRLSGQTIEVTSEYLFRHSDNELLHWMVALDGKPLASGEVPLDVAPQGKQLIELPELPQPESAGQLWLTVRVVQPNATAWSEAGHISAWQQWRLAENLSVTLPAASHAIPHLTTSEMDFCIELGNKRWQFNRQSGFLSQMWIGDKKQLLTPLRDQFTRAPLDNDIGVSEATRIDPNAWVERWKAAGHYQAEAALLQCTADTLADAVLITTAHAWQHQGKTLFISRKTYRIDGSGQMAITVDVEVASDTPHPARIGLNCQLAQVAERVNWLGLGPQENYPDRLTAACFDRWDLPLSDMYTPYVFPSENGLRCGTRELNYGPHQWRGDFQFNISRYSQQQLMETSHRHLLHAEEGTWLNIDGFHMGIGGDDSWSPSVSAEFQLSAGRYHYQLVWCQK

cells [11] = type: functional, cell-based
[12] = molecular target: Nuclear receptor subfamily 0 group B member 1 (Homo sapiens, UniProt P51843); type: functional, cell-based;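 also: HEK293T cells transfected with SF-1 and DAX-1 plus StAR promoter luciferase reporter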
Sequence of Nuclear receptor subfamily 0 group B member 1 (P51843 whole entry): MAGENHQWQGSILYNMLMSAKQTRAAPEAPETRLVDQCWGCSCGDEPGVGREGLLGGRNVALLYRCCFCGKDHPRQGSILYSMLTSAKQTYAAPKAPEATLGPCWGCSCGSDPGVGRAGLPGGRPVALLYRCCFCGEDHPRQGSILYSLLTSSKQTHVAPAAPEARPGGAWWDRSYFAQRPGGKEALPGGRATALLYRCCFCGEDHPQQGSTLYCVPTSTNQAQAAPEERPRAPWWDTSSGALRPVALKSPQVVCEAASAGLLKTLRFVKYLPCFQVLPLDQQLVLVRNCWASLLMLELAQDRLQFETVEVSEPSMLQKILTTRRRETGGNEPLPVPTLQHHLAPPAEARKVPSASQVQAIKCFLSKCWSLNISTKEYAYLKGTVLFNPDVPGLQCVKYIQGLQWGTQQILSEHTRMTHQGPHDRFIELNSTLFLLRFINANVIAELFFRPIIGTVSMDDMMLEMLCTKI

[13] = Trypanosoma cruzi growth suppression in host cells – NIH3T3 host cells, beta-gal luminescence, confirmation (AID 2044); type: functional, cell-based;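 also: intracellular parasites grown in NIH/3T3 mouse fibroblasts as host cells; luminescent beta-galactosidase reporter signal from transgenic T. cruzi replicating inside host cells; inhibitors lower the luminescence signal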
[14] = NIH3T3 cell viability loss – ATP luminescence, mouse fibroblasts, counter-screen, dose response (AID 2010); type: functional, cell-based;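 also: cells exposed to compound for about 90 hours before reading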
[15] = Luminescence Cell-Based Dose Retest to Confirm Inhibitors of Cancer Stem Cells. [Related pubchem assays (depositor defined):AID2717, AID2721]; type: functional; details: Homo sapiens
[16] = molecular target: DNA repair protein RAD52 homolog (Homo sapiens, UniProt P43351); type: functional, biochemical
Sequence of DNA repair protein RAD52 homolog (P43351 whole entry): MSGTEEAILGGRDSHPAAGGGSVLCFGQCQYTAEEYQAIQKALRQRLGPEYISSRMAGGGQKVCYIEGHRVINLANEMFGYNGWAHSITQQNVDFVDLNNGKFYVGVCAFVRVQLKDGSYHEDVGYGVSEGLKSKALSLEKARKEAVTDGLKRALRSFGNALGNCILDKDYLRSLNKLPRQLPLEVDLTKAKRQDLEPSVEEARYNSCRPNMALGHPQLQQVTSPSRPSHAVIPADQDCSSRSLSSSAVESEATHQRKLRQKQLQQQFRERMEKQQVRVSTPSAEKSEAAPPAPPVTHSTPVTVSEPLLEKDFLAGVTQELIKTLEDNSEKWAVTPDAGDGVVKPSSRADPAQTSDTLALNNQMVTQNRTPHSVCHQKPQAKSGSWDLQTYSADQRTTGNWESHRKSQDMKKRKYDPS

[17] = HGIII-sPLA2 enzyme inhibition potency – biochemical, QFRET, IC50, dose response (AID 743457);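 also: green fluorescence rise as the enzyme cleaves BODIPY PC-A2 in liposomes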
Melanocortin receptor 4 = Melanocortin receptor 4 (Homo sapiens, UniProt P32245); type: functional, cell-based;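 also: Cell-based assay with luminescence read-out, confirmatory dose-response testing for agonist activity of biased ligands at MC4R; human U2OS cells with tagged receptor and beta-arrestin; potency of agonists that increase receptor coupling to beta-arrestin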
Sequence of Melanocortin receptor 4 (P32245 whole entry): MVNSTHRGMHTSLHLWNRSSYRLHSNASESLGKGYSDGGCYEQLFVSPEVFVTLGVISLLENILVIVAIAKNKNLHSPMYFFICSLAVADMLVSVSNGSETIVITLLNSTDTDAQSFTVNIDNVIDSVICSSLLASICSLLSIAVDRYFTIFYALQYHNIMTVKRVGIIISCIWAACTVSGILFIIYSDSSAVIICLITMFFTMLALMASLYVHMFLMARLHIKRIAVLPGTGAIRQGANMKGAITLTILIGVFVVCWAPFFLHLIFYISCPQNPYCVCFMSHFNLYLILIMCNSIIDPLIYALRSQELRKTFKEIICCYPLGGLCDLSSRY

cells [18] = type: functional, cell-based; remark: listed apart in the source
[19] = molecular target: T2, Trace amine-associated receptor 1 (Homo sapiens, UniProt Q96RJ0); assay: Fluorescence-based cell-based high throughput dose response assay to identify agonists of the human trace amine associated receptor 1 (TAAR1).; type: functional
T2 sequence (Q96RJ0 whole entry): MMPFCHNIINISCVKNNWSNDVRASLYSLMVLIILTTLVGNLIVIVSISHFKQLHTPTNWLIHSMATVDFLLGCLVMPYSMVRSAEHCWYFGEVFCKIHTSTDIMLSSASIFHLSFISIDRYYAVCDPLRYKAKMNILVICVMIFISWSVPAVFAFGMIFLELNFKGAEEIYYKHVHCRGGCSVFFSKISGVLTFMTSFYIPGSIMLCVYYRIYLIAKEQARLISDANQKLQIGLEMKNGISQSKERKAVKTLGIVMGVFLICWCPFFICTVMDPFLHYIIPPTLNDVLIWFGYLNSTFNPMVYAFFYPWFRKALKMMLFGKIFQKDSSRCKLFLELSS

[20] = molecular target: T2, Trace amine-associated receptor 1; assay: Counterscreen for agonists of the human trace amine associated receptor 1 (hTAAR1): Fluorescence-based cell-based high throughput dose response assay to identify hTAAR1 agonist that also desensitize TAAR1 receptor response.; type: functional
cells [21] = type: functional, cell-based; remark: listed apart in the source

Sequence of Fructose-bisphosphate aldolase (P9WQA3 whole entry): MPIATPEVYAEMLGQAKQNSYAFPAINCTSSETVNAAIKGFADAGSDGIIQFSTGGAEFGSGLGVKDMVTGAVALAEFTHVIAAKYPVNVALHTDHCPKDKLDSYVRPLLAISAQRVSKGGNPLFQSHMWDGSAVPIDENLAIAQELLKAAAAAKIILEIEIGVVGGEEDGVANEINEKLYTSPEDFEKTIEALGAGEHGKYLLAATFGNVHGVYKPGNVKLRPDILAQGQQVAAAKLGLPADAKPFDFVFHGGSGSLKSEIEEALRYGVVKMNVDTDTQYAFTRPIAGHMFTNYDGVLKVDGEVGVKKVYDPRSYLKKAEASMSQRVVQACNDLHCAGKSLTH

With `O=C1NC(=O)c2cc(NC(=O)C3CCCO3)ccc21` (configuration not stated) the IC50 [1] was 2.39 µM (active).
For `CN(C(=O)COC(=O)c1nc(Cl)c(Cl)c(Cl)c1Cl)C1CCS(=O)(=O)C1` (configuration not stated), the EC50 [2] was > 120 µM (not active), the EC50 [3] was > 120 µM (not active) and the EC50 (H4) was > 120 µM (not active). The EC50 [4] was 13.1 µM (active), the AC50 [5] was 7.97 µM (active) and the AC50 [6] was 15.8 µM (active). The AC50 [7] was 22.7 µM (active) and the AC50 [8] was 6.09 µM (active).
In the case of `COCCCN1C(=O)C(O)=C(C(=O)c2ccc(OC)cc2C)C1c1cccnc1` (configuration not stated), the Ki (fMet-Leu-Phe receptor) is reported as > 66.7 µM (inactive) and the AC50 (Cytochrome P450 3A4) is reported as 20 µM (inconclusive).
With `COc1ccccc1CCNC(=O)C1CCN(C(=O)/C=C/c2ccccc2)CC1` the IC50 [9] was 13.9 µM (active), the IC50 [10] was 14.6 µM (active) and the IC50 (Beta-galactosidase) was > 80 µM (inactive).
In the case of `CCOC(=O)c1c(SCC(=O)Nc2nccs2)nc(C)c(C)c1C`, the IC50 (cells [11]) is reported as > 67.5 µM (inactive) and the IC50 [12] is reported as > 67.5 µM (inactive).
For `Cc1cc(N2CCN(C)CC2)nc2ccc(NC(S)=NCCC(C)C)cc12`, the EC50 [13] was 0.746 µM (active), the EC50 [14] was 8.05 µM (active) and the AC50 [15] was 1.24 µM (active). For the same compound, the AC50 [16] was 28.2 µM (active).
With `Nc1cc(N)c2c(c1)C(=O)c1ccccc1-2` the IC50 [17] was > 122 µM (inactive).
With `CC(=O)Nc1cc(-c2ccc(N(C)C)cc2)cn2c(-c3ccc(F)cc3)cnc12` the EC50 (Melanocortin receptor 4) was > 9.91 µM (active) and the IC50 (Beta-galactosidase) was > 80 µM (inactive).
In the case of `COC(=O)[C@]12CCCCC=C1N(Cc1ccccc1)C(=O)[C@H](CC(=O)NCCc1ccccc1OC)C2`, the IC50 (cells [18]) is reported as 27.7 µM (inactive), the EC50 [19] is reported as 2.49 µM (active) and the IC50 [20] is reported as 4.83 µM (active). For the same compound, the EC50 (cells [21]) was > 29.9 µM (inactive).
